Patent publication US20230201217A1 (priority 2019, published 2023)

Key:
[1] = test system: cynomolgus monkeys; assay: 14-day nasogastric gavage GLP toxicity study in cynomolgus monkeys; type: in vivo, cynomolgus monkey
Description: Assessments of neurobehavioral effects and general toxicity were based on mortality, functional observational battery (FOB) evaluations, clinical observations, body weight, and body temperature; ophthalmoscopic, electrocardiographic examinations; and anatomic and clinical pathology. The anatomical pathology evaluations included histopathology of a full list of tissues from all animals and a comprehensive evaluation of the central nervous system (including selected peripheral nerves) utilizing whole body perfusion and special stains. Bone marrow smears from all animals were evaluated microscopically. Complete differentials and myeloid-erythroid (ME) ratios were performed. Toxicokinetic assessment was conducted for the test article and metabolites.

[2] = target: CYP2C9 (Homo sapiens, UniProt P11712); settings: recombinant enzyme
Sequence of CYP2C9 (P11712 whole entry): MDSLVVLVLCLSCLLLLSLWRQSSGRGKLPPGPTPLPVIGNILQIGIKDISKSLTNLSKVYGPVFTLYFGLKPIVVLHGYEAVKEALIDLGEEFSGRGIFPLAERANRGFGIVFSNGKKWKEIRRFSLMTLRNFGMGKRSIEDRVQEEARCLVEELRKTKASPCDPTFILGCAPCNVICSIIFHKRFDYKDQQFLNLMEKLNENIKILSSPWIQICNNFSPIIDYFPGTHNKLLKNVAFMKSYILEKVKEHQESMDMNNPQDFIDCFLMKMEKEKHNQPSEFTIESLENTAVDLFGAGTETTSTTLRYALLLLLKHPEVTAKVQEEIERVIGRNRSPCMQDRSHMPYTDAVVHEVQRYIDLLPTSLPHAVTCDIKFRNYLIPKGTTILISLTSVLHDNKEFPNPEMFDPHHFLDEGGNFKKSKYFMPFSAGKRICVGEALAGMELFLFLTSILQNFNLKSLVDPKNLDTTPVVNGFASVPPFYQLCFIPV
Protocol: Control incubations were performed for each assay with appropriate positive inhibitory controls.

[3] = Toxicokinetics, 14-day oral gavage study in CD-1 mice; type: in vivo, mouse
Protocol: The relative metabolite concentrations were determined from plasma samples obtained on the last day of dosing in the 25 mg/kg/day group of animals using a UPLC/MS/MS method. Major metabolites were identified as M2 and M4, followed by M8 and M9. The parent 18-MC exposure was less than 1% of the total drug related material. No significant sex differences were observed.
All test article-treated animals underwent up-titration of dosage levels prior to reaching the maximum daily dose, which was administered for 14 consecutive days. […] The dose volume was 10 mL/kg for all groups. Groups 1 and 4 each consisted of 25 animals/sex and Groups 2-3 each consisted of 20 animals for each sex. Following 14 days of dose administration, 15 mice/sex/toxicology group were euthanized; the remaining 5, (10 for the control and high dose group) mice/sex/toxicology group were euthanized following a 14-day nondosing (recovery) period. Following the final blood collection (study day 13), all toxicokinetic animals (from a satellite group of 18 animals/sex/dose level) were euthanized.

[4] = target: T1, rat α3β4 nicotinic acetylcholine receptor (nAChR) (Rattus norvegicus, UniProt P04757+P12392); assay: cell-based
T1 construct: expressed in transfected cells; host or cells: HEK 293 (ATCC CRL1573), transient, Lipofectamine 2000
T1 sequence (P04757 26-499): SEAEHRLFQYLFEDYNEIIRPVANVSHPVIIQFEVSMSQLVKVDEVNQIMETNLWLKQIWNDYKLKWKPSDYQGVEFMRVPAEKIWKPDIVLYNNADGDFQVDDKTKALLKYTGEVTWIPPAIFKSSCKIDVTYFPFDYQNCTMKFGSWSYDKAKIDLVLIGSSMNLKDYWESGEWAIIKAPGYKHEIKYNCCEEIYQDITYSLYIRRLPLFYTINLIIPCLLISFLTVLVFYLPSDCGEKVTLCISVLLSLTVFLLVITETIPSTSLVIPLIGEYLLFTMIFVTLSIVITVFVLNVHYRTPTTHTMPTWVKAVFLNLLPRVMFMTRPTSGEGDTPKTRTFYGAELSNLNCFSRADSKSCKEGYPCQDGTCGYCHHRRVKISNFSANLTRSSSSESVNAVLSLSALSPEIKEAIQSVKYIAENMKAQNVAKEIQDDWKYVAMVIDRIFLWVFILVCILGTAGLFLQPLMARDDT
T1 sequence (P12392 21-495): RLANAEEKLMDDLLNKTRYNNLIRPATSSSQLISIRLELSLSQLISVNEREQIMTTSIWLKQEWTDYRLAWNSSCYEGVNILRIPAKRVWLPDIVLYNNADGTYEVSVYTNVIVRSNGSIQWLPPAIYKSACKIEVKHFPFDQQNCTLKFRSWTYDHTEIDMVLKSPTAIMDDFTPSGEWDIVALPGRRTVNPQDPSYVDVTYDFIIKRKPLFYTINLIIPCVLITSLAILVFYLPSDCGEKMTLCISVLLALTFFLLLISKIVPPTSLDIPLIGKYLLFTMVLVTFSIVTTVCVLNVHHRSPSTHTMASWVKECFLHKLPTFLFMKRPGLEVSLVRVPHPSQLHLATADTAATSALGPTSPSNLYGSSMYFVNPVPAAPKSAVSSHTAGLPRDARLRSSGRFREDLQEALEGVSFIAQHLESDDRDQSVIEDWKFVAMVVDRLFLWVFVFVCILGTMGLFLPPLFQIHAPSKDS

[5] = 400/300 mg/kg/day F, 3 examined
[6] = 400/300 mg/kg/day M, 4 examined

Structure (SMILES): COCCC1CC2CN3CCc4c([nH]c5ccccc45)C(C(=O)OC)(C2)C13.Cl (stereo not shown) [18-MC HCl, 18-Methoxycoronaridine hydrochloride]
- Bone marrow, femur: Depletion, mixed; number with observation ([1]; 150 mg/kg/day M, 3 examined): 1
- Liver: Hypertrophy, hepatocellular, panlobular; number with observation ([1]; 150 mg/kg/day M, 3 examined): 3
- Thymus: Depletion, lymphoid, cortex; number with observation ([1]; 150 mg/kg/day M, 3 examined): 3
- mortality ([1]; 400 mg/kg, first day of dosing): one male died
- Bone marrow, femur: Depletion, mixed, mild; number with observation ([1]; 400/300 mg/kg/day F): 0
- Bone marrow, femur: Depletion, mixed, minimal; number with observation ([1]; 400/300 mg/kg/day F): 1
- Bone marrow, femur: Depletion, mixed, moderate; number with observation ([1]; 400/300 mg/kg/day F): 0
- Bone marrow, rib: Depletion, mixed, mild; number with observation ([1]; 400/300 mg/kg/day F): 1
- Bone marrow, rib: Depletion, mixed, minimal; number with observation ([1]; 400/300 mg/kg/day F): 0
- Bone marrow, rib: Depletion, mixed, moderate; number with observation ([1]; 400/300 mg/kg/day F): 0
- Bone marrow, rib: Depletion, mixed; number with observation ([1]; 400/300 mg/kg/day F): 1
- Bone marrow, sternum: Depletion, mixed, mild; number with observation ([1]; 400/300 mg/kg/day F): 1
- Bone marrow, sternum: Depletion, mixed, minimal; number with observation ([1]; 400/300 mg/kg/day F): 0
- Bone marrow, sternum: Depletion, mixed, moderate; number with observation ([1]; 400/300 mg/kg/day F): 0
- Bone marrow, sternum: Depletion, mixed; number with observation ([1]; 400/300 mg/kg/day F): 1
- Liver: Hypertrophy, hepatocellular, panlobular, mild; number with observation ([1]; 400/300 mg/kg/day F): 3
- Liver: Hypertrophy, hepatocellular, panlobular, minimal; number with observation ([1]; 400/300 mg/kg/day F): 0
- Thymus: Depletion lymphoid, generalized, mild; number with observation ([1]; 400/300 mg/kg/day F): 2
- Thymus: Depletion lymphoid, generalized, moderate; number with observation ([1]; 400/300 mg/kg/day F): 1
- Thymus: Depletion lymphoid, generalized; number with observation ([1]; 400/300 mg/kg/day F): 3
- Thymus: Depletion, lymphoid, cortex, mild; number with observation ([1]; 400/300 mg/kg/day F): 0
- Thymus: Depletion, lymphoid, cortex, minimal; number with observation ([1]; 400/300 mg/kg/day F): 0
- Thymus: Depletion, lymphoid, cortex, moderate; number with observation ([1]; 400/300 mg/kg/day F): 0
- mean cumulative body gain (Days 1-14) ([1]; 400/300 mg/kg/day F): -0.09 kg
- Bone marrow, femur: Depletion, mixed; number with observation [1, 5]: 1
- Liver: Hypertrophy, hepatocellular, panlobular; number with observation [1, 5]: 3
- Thymus: Depletion, lymphoid, cortex; number with observation [1, 5]: 0
- Bone marrow, femur: Depletion, mixed, mild; number with observation ([1]; 400/300 mg/kg/day M): 1
- Bone marrow, femur: Depletion, mixed, minimal; number with observation ([1]; 400/300 mg/kg/day M): 0
- Bone marrow, femur: Depletion, mixed, moderate; number with observation ([1]; 400/300 mg/kg/day M): 1
- Bone marrow, rib: Depletion, mixed, mild; number with observation ([1]; 400/300 mg/kg/day M): 1
- Bone marrow, rib: Depletion, mixed, minimal; number with observation ([1]; 400/300 mg/kg/day M): 0
- Bone marrow, rib: Depletion, mixed, moderate; number with observation ([1]; 400/300 mg/kg/day M): 1
- Bone marrow, rib: Depletion, mixed; number with observation ([1]; 400/300 mg/kg/day M): 2
- Bone marrow, sternum: Depletion, mixed, mild; number with observation ([1]; 400/300 mg/kg/day M): 1
- Bone marrow, sternum: Depletion, mixed, minimal; number with observation ([1]; 400/300 mg/kg/day M): 0
- Bone marrow, sternum: Depletion, mixed, moderate; number with observation ([1]; 400/300 mg/kg/day M): 1
- Bone marrow, sternum: Depletion, mixed; number with observation ([1]; 400/300 mg/kg/day M): 2
- Liver: Hypertrophy, hepatocellular, panlobular, mild; number with observation ([1]; 400/300 mg/kg/day M): 3
- Liver: Hypertrophy, hepatocellular, panlobular, minimal; number with observation ([1]; 400/300 mg/kg/day M): 0
- Thymus: Depletion lymphoid, generalized, mild; number with observation ([1]; 400/300 mg/kg/day M): 1
- Thymus: Depletion lymphoid, generalized, moderate; number with observation ([1]; 400/300 mg/kg/day M): 2
- Thymus: Depletion lymphoid, generalized; number with observation ([1]; 400/300 mg/kg/day M): 3
- Thymus: Depletion, lymphoid, cortex, mild; number with observation ([1]; 400/300 mg/kg/day M): 0
- Thymus: Depletion, lymphoid, cortex, minimal; number with observation ([1]; 400/300 mg/kg/day M): 0
- Thymus: Depletion, lymphoid, cortex, moderate; number with observation ([1]; 400/300 mg/kg/day M): 0
- mean cumulative body gain (Days 1-14) ([1]; 400/300 mg/kg/day M): -0.23 kg
- Bone marrow, femur: Depletion, mixed; number with observation [1, 6]: 2
- Liver: Hypertrophy, hepatocellular, panlobular; number with observation [1, 6]: 3
- Thymus: Depletion, lymphoid, cortex; number with observation [1, 6]: 0
- NOAEL ([1]; 14 days): 50 mg/kg/day
- highest non-lethal dose ([1]; cynomolgus monkey, in vivo): 300 mg/kg
- IC50 [2]: < 1500 nM
- AUC(0-24) ([3]; Day 0, Female, 25 mg/kg/day): 77.8 ng·h/mL
- Cmax ([3]; Day 0, Female, 25 mg/kg/day): 30.8 ng/mL
- Tmax ([3]; Day 0, Female, 25 mg/kg/day): 30 min
- AUC(0-24) ([3]; Day 0, Female, 50 mg/kg/day): 56.2 ng·h/mL
- Cmax ([3]; Day 0, Female, 50 mg/kg/day): 23.7 ng/mL
- Tmax ([3]; Day 0, Female, 50 mg/kg/day): 30 min
- AUC(0-24) ([3]; Day 0, Female, 100 mg/kg/day): 187 ng·h/mL
- Cmax ([3]; Day 0, Female, 100 mg/kg/day): 51.8 ng/mL
- Tmax ([3]; Day 0, Female, 100 mg/kg/day): 60 min
- AUC(0-24) ([3]; Day 0, Male, 25 mg/kg/day): 66.6 ng·h/mL
- Cmax ([3]; Day 0, Male, 25 mg/kg/day): 19.4 ng/mL
- Tmax ([3]; Day 0, Male, 25 mg/kg/day): 30 min
- AUC(0-24) ([3]; Day 0, Male, 50 mg/kg/day): 108 ng·h/mL
- Cmax ([3]; Day 0, Male, 50 mg/kg/day): 44.3 ng/mL
- Tmax ([3]; Day 0, Male, 50 mg/kg/day): 30 min
- AUC(0-24) ([3]; Day 0, Male, 100 mg/kg/day): 349 ng·h/mL
- Cmax ([3]; Day 0, Male, 100 mg/kg/day): 131 ng/mL
- Tmax ([3]; Day 0, Male, 100 mg/kg/day): 60 min
- AUC(0-24) ([3]; Day 13, Female, 25 mg/kg/day): 54.5 ng·h/mL
- Cmax ([3]; Day 13, Female, 25 mg/kg/day): 25.6 ng/mL
- Tmax ([3]; Day 13, Female, 25 mg/kg/day): 30 min
- AUC(0-24) ([3]; Day 13, Female, 50 mg/kg/day): 119 ng·h/mL
- Cmax ([3]; Day 13, Female, 50 mg/kg/day): 49.9 ng/mL
- Tmax ([3]; Day 13, Female, 50 mg/kg/day): 30 min
- AUC(0-24) ([3]; Day 13, Female, 100 mg/kg/day): 188 ng·h/mL
- Cmax ([3]; Day 13, Female, 100 mg/kg/day): 44.0 ng/mL
- T1/2 ([3]; Day 13, Female, 100 mg/kg/day): 147 min
- Tmax ([3]; Day 13, Female, 100 mg/kg/day): 30 min
- AUC(0-24) ([3]; Day 13, Male, 25 mg/kg/day): 50.5 ng·h/mL
- Cmax ([3]; Day 13, Male, 25 mg/kg/day): 23.6 ng/mL
- Tmax ([3]; Day 13, Male, 25 mg/kg/day): 30 min
- AUC(0-24) ([3]; Day 13, Male, 50 mg/kg/day): 164 ng·h/mL
- Cmax ([3]; Day 13, Male, 50 mg/kg/day): 92.9 ng/mL
- T1/2 ([3]; Day 13, Male, 50 mg/kg/day): 107 min
- Tmax ([3]; Day 13, Male, 50 mg/kg/day): 30 min
- AUC(0-24) ([3]; Day 13, Male, 100 mg/kg/day): 329 ng·h/mL
- Cmax ([3]; Day 13, Male, 100 mg/kg/day): 136 ng/mL
- T1/2 ([3]; Day 13, Male, 100 mg/kg/day): 116 min
- Tmax ([3]; Day 13, Male, 100 mg/kg/day): 30 min
- Max Inhibition 20-30 μM [4]: 98 ± 1%
- Persistent Inhibition at 1 sec [4]: 88 ± 3%
